Measurements taken from ChEMBL document CHEMBL1138403, “Nitrogen-containing flavonoids as CDK1/Cyclin B inhibitors: design, synthesis, and biological evaluation” (Bioorg Med Chem Lett, 2007).

Key:
[1] = Inhibition of CDK1/Cyclin B; design: species or system Homo sapiens
Bel-7402 = assay: Antiproliferative activity against human Bel7402 cells after 72 hrs; format: functional, cell-based; conditions: Bel-7402, 72 h
PC-3 [2] = assay: Antiproliferative activity against human PC3 cells after 72 hrs; format: functional, cell-based; conditions: PC-3, 72 h
[3] = Antiproliferative activity against human ECA109 cells after 72 hrs; format: functional, cell-based; conditions: ECa-109, 72 h
A549 = assay: Antiproliferative activity against human A549 cells after 72 hrs; format: functional, cell-based; conditions: A549, 72 h
HL-60 = assay: Antiproliferative activity against human HL60 cells after 72 hrs; format: functional, cell-based; conditions: HL-60, 72 h
MCF7 = assay: Antiproliferative activity against human MCF7 cells after 72 hrs; format: functional, cell-based; conditions: MCF7, 72 h
PC-3 [4] = assay: Cell cycle arrest in human PC3 cells assessed as accumulation at G0/G1 phase at 7.2 uM after 12 hrs relative to control by flow cytometry; format: functional
PC-3 [5] = assay: Cell cycle arrest in human PC3 cells assessed as accumulation at S phase at 7.2 uM after 12 hrs relative to control by flow cytometry; format: functional
PC-3 [6] = assay: Cell cycle arrest in human PC3 cells assessed as accumulation at G2/M phase at 7.2 uM after 12 hrs relative to control by flow cytometry; format: functional
PC-3 [7] = assay: Cell cycle arrest in human PC3 cells assessed as accumulation at SubG0 phase at 7.2 uM after 12 hrs relative to control by flow cytometry; format: functional
PC-3 [8] = assay: Cell cycle arrest in human PC3 cells assessed as accumulation at G0/G1 phase at 7.2 uM after 24 hrs relative to control by flow cytometry; format: functional
PC-3 [9] = assay: Cell cycle arrest in human PC3 cells assessed as accumulation at S phase at 7.2 uM after 24 hrs relative to control by flow cytometry; format: functional
PC-3 [10] = assay: Cell cycle arrest in human PC3 cells assessed as accumulation at G2/M phase at 7.2 uM after 24 hrs relative to control by flow cytometry; format: functional
PC-3 [11] = assay: Cell cycle arrest in human PC3 cells assessed as accumulation at SubG0 phase at 7.2 uM after 24 hrs relative to control by flow cytometry; format: functional
PC-3 [12] = assay: Effect on morphology of human PC3 cells assessed as increase in chromatin condensation by staining method; format: functional, cell-based

Structure (SMILES) | IC50 [1] | IC50 (Bel-7402) | IC50 (PC-3 [2]) | IC50 (A549) | IC50 (HL-60) | IC50 (MCF7) | IC50 [3] | Activity (PC-3 [4]) | Activity (PC-3 [5]) | Activity (PC-3 [6]) | Activity (PC-3 [7]) | Activity (PC-3 [8]) | Activity (PC-3 [9]) | Activity (PC-3 [10]) | Activity (PC-3 [11]) | Activity (PC-3 [12])
COc1cc(OC)c(C(=O)/C=C/c2ccccc2Cl)c(O)c1CN(C)CC(=O)O | – | 35.2 µM | 12.5 µM | 79.4 µM | 80.3 µM | 73.2 µM | 44.4 µM | – | – | – | – | – | – | – | – | –
COc1cc(OC)c(C(=O)/C=C/c2ccccc2Cl)c(O)c1CN(C)CCO | > 3 µM | 64.4 µM | 6.2 µM | 6.9 µM | 19.7 µM | 10 µM | 0.8 µM | – | – | – | – | – | – | – | – | –
COc1cc(OC)c2c(=O)cc(-c3ccccc3Cl)oc2c1CN1CCCCC1 | 0.155 µM | 44.2 µM | 15.5 µM | > 150 µM | 34.5 µM | 23.7 µM | 23.7 µM | – | – | – | – | – | – | – | – | –
COc1cc(OC)c2c(=O)cc(-c3ccccc3Cl)oc2c1CN1CCOCC1 | > 3 µM | 61.3 µM | 57.8 µM | > 150 µM | 67.3 µM | – | 61.3 µM | – | – | – | – | – | – | – | – | –
CCN(C)Cc1c(OC)cc(OC)c(C(=O)/C=C/c2ccccc2Cl)c1O | 0.0758 µM | 23.3 µM | 0.003 µM | 1.3 µM | 0.2 µM | 6.8 µM | 1.4 µM | – | – | – | – | – | – | – | – | –
COc1cc(O)c2c(=O)cc(-c3ccccc3Cl)oc2c1CN1CCOCC1 | > 3 µM | > 150 µM | 42 µM | > 150 µM | 26.9 µM | 124 µM | 86.6 µM | – | – | – | – | – | – | – | – | –
COc1cc(OC)c(C(=O)/C=C/c2ccccc2Cl)c(O)c1CN(C)CCCN(C)C | 0.468 µM | 30.9 µM | 14.5 µM | 3.1 µM | 11.4 µM | 3.2 µM | 3.8 µM | – | – | – | – | – | – | – | – | –
COc1cc(O)c2c(=O)cc(-c3ccccc3Cl)oc2c1CN1CCCCC1 | 0.138 µM | 118 µM | 63.4 µM | 45.5 µM | 48.1 µM | – | 21.5 µM | – | – | – | – | – | – | – | – | –

Continued, in another order:

IC50 [1] | IC50 (Bel-7402) | IC50 (PC-3 [2]) | IC50 (A549) | IC50 (HL-60) | IC50 (MCF7) | Structure (SMILES) | IC50 [3] | Activity (PC-3 [4]) | Activity (PC-3 [5]) | Activity (PC-3 [6]) | Activity (PC-3 [7]) | Activity (PC-3 [8]) | Activity (PC-3 [9]) | Activity (PC-3 [10]) | Activity (PC-3 [11]) | Activity (PC-3 [12])
0.324 µM | 8.1 µM | 10 µM | 3.3 µM | 10.8 µM | 5.1 µM | COc1cc(OC)c(C(=O)/C=C/c2ccccc2Cl)c(O)c1CN(C)CCOC(C)=O | 3.9 µM | – | – | – | – | – | – | – | – | –
1.25 µM | 6.8 µM | 3.1 µM | 2.6 µM | 14.2 µM | 3.9 µM | COc1cc(OC)c(C(=O)/C=C/c2ccccc2Cl)c(O)c1CN1CCCC1 | 6.9 µM | – | – | – | – | – | – | – | – | –
0.503 µM | 21.8 µM | 0.4 µM | 2.1 µM | 19.2 µM | 0.09 µM | COc1cc(OC)c(C(=O)/C=C/c2ccccc2Cl)c(O)c1CN(C)C | 2.6 µM | – | – | – | – | – | – | – | – | –
0.0475 µM | 22.7 µM | 17.2 µM | 4.8 µM | 6.9 µM | 17.2 µM | COc1cc(OC)c(C(=O)/C=C/c2ccccc2Cl)c(O)c1CN1CCOCC1 | 6.2 µM | – | – | – | – | – | – | – | – | –
> 3 µM | 8.5 µM | 7.2 µM | 9.1 µM | 0.4 µM | 10.6 µM | COC(=O)CN(C)Cc1c(OC)cc(OC)c(C(=O)/C=C/c2ccccc2Cl)c1O | 13.9 µM | – | – | – | – | – | – | – | – | –
0.0497 µM | 6.7 µM | 4.2 µM | 3.6 µM | 30.9 µM | 2.7 µM | CCN(CC)Cc1c(OC)cc(OC)c(C(=O)/C=C/c2ccccc2Cl)c1O | 7.1 µM | – | – | – | – | – | – | – | – | –
0.0569 µM | 3.1 µM | 1.7 µM | 2.8 µM | 3.6 µM | 2.6 µM | COc1cc(OC)c(C(=O)/C=C/c2ccccc2Cl)c(O)c1CN1CCCCC1 | 2.5 µM | 60.2% | 25.8% | 14% | 6.1% | 60.7% | 29.9% | 9.8% | 34.1% | Dose-dependent effect
> 3 µM | 7.6 µM | 4.7 µM | 4.1 µM | 10.9 µM | 5.2 µM | COc1cc(OC)c(C(=O)/C=C/c2ccccc2Cl)c(O)c1CN1CCN(C)CC1 | 7.1 µM | – | – | – | – | – | – | – | – | –
